ChEMBL document CHEMBL1201862, “PubChem BioAssay data set” (2004)
The source made the active and inactive calls.

Experiments:
[1] = cytotoxicity in KRAS-transformed pancreatic duct cells, primary screen, cell-based, fluorescence, HTS (AID 431); format: functional; conditions: Homo sapiens;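 note: cell line used: HPDE-C7K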
[2] = insulin promoter down-regulators in MIN6 cells, imaging, high-content screening, mouse beta cells (AID 1628); format: functional
[3] = target: Nonstructural protein 1 (Influenza A virus, UniProt Q194T2); format: functional, Influenza A virus (A/California/07/2009(H1N1))
[4] = cells; format: functional
[5] = HepG2 cell cytotoxicity, dose response, cytotoxicity control for non-replicating M. tuberculosis project (AID 489018); format: functional; conditions: Mycobacterium tuberculosis
[6] = target: Heat shock protein HSP 90-alpha (Homo sapiens, UniProt P07900); format: functional, organism-based
[7] = inhibitors of SNCA 5'UTR-driven reporter translation, confirmation, H4 neuroglioma cells, luminescence (AID 1988); format: functional, cell-based
[8] = cytotoxicity in HPDE-C7 cells, cell-based, fluorescence, HTS (AID 430); format: functional; conditions: Homo sapiens
[9] = target: T1, Alkaline phosphatase, tissue-nonspecific isozyme (Homo sapiens, UniProt P05186); test: TNAP enzyme activators, dose response, selectivity assay for human IAP activator project, biochemical, TNAP isozyme, human IAP uHTS hits (AID 488886); format: functional;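 note: potency of compounds raising TNAP activity as a selectivity check on IAP activators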
T1 sequence (P05186 whole entry): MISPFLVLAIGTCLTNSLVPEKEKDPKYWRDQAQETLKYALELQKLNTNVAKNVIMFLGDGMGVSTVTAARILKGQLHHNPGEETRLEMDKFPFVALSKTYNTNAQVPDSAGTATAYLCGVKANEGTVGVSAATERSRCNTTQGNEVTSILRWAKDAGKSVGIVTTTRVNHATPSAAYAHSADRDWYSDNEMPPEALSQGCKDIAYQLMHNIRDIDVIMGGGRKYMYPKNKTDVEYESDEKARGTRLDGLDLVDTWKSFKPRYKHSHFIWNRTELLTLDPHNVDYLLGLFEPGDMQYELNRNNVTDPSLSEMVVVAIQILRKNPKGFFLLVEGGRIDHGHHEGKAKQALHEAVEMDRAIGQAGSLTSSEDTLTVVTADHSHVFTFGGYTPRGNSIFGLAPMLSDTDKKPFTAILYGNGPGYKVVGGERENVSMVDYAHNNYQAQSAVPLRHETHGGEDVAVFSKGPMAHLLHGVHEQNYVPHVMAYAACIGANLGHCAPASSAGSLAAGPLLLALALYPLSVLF

[10] = cytotoxicity toward DRD oncogenic fibroblasts, dose response, cell-based, non-viral oncogenic, luminescence (AID 1934); format: functional; conditions: Homo sapiens
[11] = Vero E6 cell cytotoxicity, dose response, cytotoxicity control for non-replicating M. tuberculosis project, secondary assay (AID 492998); format: functional, VeroE6; conditions: Vero C1008
[12] = Luminescence-based dose response cell-based high throughput screening assay for cytotoxic compounds using the IEC-6 intestinal epithelial cell line. [Related pubchem assays: 1858 (Summary AID.), 1825 (Counterscreen.), 1907 (Confirmation screen.)]; format: functional
[13] = tested on: INS1; test: beta cell apoptosis inhibitors, cytokine rescue, dose response, luminescence, retest (AID 449756); format: functional, cell-based; conditions: Rattus norvegicus;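 note: cell death triggered by IL-1 beta plus TNF-alpha plus IFN-gamma mixture; protective hits raise ATP signal compared with cytokine alone wells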
[14] = target: T2, Intestinal-type alkaline phosphatase (Homo sapiens, UniProt P09923); test: human IAP activators, dose response, biochemical, luminescent, uHTS hits, set 2 (AID 488817); format: functional;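 note: potency of activators that raise enzyme activity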
[15] = cytotoxicity in HEK-293T cells, dose response, cytotoxicity control for TCR NF-kB inhibitor project, luminescence, T-cell screen hits (AID 489026); format: functional, cell-based;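 note: cells exposed to compound about 14 hours before the viability readout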
[16] = tested on: HEK293; test: inhibitors of LMP1-driven NF-kB reporter, dose response, cell-based, HEK293, luciferase, cherry-pick (AID 588343); format: functional; conditions: Homo sapiens
[17] = C. albicans growth with fluconazole, confirmation, fluorescence, retest (AID 2467); format: functional, cell-based
[18] = tested on: BJ; test: cells; format: functional, cell-based; conditions: Homo sapiens
[19] = Luminescence Cell-Based Dose Response HTS to Identify Inhibitors of 5'UTR Stem-Loop Driven Prion Protein mRNA Translation in H4 Neuroglioblastoma Cells. [Related pubchem assays: 1827 (Project Summary), 1813 (Primary HTS)]; format: functional
[20] = target: T2, Intestinal-type alkaline phosphatase; test: human intestinal alkaline phosphatase activators, dose response, biochemical, luminescence, uHTS hits (AID 463120); format: functional
[21] = cytotoxicity in MIN6 insulinoma cells, dose response, cytotoxicity control, cell-based, mouse insulinoma (AID 2122); format: functional;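 note: confirmatory high-throughput counterscreen run to flag cytotoxic compounds; mouse MIN-6 beta cells carrying an insulin promoter eGFP reporter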
[22] = NIH-3T3 fibroblast cytotoxicity, dose response, cytotoxicity control, cell-based, fluorescence, Alamar Blue, secondary assay (AID 2327); format: functional;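 note: NIH-3T3 mouse fibroblasts cultured with fluconazole at 8 µg/mL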
[23] = inhibitors of firefly luciferase expression or activity, dose response, H4 neuroglioma cells, luminescence (AID 1990); format: functional, cell-based
[24] = tested on: BJ; test: cytotoxicity toward BJ-TERT fibroblasts, dose response, cell-based, RAS-independent, luminescence (AID 1933); format: functional; conditions: Homo sapiens
[25] = target: Intestinal-type alkaline phosphatase (Mus musculus, UniProt P24822); test: PubChem AID 488874; format: functional
[26] = THP-1 cell cytotoxicity, dose response, cytotoxicity control for non-replicating M. tuberculosis project (AID 489025); format: functional
[27] = tested on: BJ; test: cytotoxicity toward BJ-TERT-LT-ST fibroblasts, dose response, cell-based, RAS-independent, luminescence (AID 1935); format: functional; conditions: Homo sapiens;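 note: BJ fibroblasts immortalized with TERT plus LT and ST oncogenes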
[28] = target: T3, Cannabinoid receptor 2 (Homo sapiens, UniProt P34972); test: SAR analysis of agonists of the Cannabinoid Receptor 2 using an Image-Based Assay. [Related pubchem assays (depositor defined):AID2013, AID2026]; format: functional
[29] = target: T4, Cannabinoid receptor 1 (Homo sapiens, UniProt P21554); test: SAR analysis of agonists of the Cannabinoid Receptor 1 using an Image-Based Assay - Set 2. [Related pubchem assays (depositor defined):AID2013, AID2026]; format: functional
[30] = target: T4, Cannabinoid receptor 1; test: SAR analysis of antagonists of the Cannabinoid Receptor 1 using an Image-Based Assay - Set 2. [Related pubchem assays (depositor defined):AID2013, AID2026]; format: functional
[31] = target: T3, Cannabinoid receptor 2; test: SAR analysis of antagonists of the Cannabinoid Receptor 2 using an Image-Based Assay. [Related pubchem assays (depositor defined):AID2013, AID2026]; format: functional
[32] = target: T5, G-protein coupled receptor 35 (Homo sapiens, UniProt Q9HC97); test: SAR analysis of Agonists of the GPR35 Receptor using an Image-Based Assay - Set 2. [Related pubchem assays (depositor defined):AID2013, AID2026]; format: functional
[33] = target: G-protein coupled receptor 55 (Homo sapiens, UniProt Q9Y2T6); test: GPR55 antagonist potency of analogs, SAR follow-up, imaging, U2OS, beta-arrestin-GFP, LPI agonist, set 2 (AID 2820); format: functional
[34] = target: T5, G-protein coupled receptor 35; test: SAR analysis of Antagonists of the GPR35 Receptor using an Image-Based Assay - Set 3. [Related pubchem assays (depositor defined):AID2013, AID2026]; format: functional
[35] = target: Photoreceptor-specific nuclear receptor (Homo sapiens, UniProt Q9Y5X4); format: functional, cell-based;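 note: CHO-S cells with Gal4-NCOR and VP16-NR2E3 two-hybrid luciferase reporter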
[36] = target: Paired box protein Pax-8 (Homo sapiens, UniProt Q06710); test: inhibitors of PAX8-driven TPO luciferase reporter, dose response, RMG-I cells, cherry-pick (AID 687027); format: functional, cell-based;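 note: luciferase reporter driven by Pax8 target thyroperoxidase promoter measured by SteadyGlo luminescence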
[37] = target: Protein S100-A4 (Homo sapiens, UniProt P26447); test: S100A4-myosin IIA binding inhibitor potency, dose response, biochemical, fluorescence polarization, cherry-picked hits (AID 687001); format: functional
[38] = target: Keap1/Nrf2 (Homo sapiens, UniProt Q14145); test: Keap1-Nrf2 protein-protein interaction inhibitors, dose response, biochemical, fluorescence polarization, cherry-picked samples (AID 588683)
Keap1/Nrf2, sequence (Q16236 whole entry): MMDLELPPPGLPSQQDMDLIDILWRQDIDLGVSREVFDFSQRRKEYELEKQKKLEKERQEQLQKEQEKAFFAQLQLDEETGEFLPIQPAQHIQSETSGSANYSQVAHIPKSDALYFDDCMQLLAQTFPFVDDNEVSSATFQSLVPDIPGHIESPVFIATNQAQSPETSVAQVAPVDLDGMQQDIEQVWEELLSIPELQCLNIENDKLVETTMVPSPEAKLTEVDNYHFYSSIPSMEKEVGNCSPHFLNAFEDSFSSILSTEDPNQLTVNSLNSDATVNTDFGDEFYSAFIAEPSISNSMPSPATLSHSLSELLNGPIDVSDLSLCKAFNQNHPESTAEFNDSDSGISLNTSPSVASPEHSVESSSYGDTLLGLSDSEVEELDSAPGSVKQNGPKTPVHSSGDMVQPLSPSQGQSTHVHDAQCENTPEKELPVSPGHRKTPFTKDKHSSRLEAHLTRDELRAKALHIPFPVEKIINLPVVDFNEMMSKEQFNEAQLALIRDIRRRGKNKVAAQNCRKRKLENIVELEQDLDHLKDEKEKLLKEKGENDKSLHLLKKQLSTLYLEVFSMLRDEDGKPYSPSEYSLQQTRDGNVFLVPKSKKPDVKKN
Keap1/Nrf2, sequence (Q14145 whole entry): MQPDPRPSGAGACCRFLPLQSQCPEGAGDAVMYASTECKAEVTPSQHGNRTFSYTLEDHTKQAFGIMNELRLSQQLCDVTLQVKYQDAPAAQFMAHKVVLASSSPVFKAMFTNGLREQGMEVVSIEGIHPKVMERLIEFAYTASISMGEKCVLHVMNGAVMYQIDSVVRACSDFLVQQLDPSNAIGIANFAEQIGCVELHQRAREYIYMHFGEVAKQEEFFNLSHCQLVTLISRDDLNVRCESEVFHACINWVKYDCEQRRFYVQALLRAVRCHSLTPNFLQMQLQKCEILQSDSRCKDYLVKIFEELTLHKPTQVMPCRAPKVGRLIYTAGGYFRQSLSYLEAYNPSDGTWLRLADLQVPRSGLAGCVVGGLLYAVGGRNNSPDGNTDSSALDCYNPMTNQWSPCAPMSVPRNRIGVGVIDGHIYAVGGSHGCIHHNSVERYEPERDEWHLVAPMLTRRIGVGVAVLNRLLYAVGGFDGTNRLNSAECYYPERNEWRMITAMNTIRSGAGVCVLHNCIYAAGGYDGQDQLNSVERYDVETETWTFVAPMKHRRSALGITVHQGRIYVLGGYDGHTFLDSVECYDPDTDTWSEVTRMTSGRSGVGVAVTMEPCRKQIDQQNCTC

T2 sequence (P09923 whole entry): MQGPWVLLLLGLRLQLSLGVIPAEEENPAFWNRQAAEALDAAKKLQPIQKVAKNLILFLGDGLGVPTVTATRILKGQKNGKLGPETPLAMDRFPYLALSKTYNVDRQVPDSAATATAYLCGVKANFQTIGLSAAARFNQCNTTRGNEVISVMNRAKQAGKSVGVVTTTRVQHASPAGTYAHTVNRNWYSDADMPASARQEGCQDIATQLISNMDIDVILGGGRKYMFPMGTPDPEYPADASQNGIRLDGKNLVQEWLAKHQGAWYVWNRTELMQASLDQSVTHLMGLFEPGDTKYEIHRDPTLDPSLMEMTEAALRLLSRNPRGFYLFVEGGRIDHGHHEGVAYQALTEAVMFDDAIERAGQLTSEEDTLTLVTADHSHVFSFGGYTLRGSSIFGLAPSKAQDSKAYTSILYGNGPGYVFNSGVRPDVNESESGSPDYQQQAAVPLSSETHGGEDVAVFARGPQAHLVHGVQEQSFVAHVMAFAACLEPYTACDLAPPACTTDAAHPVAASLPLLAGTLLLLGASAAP
T4 sequence (P21554 whole entry): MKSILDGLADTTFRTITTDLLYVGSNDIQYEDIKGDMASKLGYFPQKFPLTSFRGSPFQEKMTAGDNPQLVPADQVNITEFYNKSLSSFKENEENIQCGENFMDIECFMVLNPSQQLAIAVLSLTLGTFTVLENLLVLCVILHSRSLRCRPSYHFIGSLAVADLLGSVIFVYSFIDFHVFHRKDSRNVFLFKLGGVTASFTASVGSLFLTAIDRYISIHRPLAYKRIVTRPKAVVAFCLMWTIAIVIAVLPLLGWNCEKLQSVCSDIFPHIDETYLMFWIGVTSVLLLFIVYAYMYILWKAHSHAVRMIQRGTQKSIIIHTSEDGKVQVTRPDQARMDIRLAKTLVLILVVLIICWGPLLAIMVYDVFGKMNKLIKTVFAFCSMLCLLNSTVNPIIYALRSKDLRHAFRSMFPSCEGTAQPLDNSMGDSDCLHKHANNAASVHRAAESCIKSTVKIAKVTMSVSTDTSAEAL
T5 sequence (Q9HC97 whole entry): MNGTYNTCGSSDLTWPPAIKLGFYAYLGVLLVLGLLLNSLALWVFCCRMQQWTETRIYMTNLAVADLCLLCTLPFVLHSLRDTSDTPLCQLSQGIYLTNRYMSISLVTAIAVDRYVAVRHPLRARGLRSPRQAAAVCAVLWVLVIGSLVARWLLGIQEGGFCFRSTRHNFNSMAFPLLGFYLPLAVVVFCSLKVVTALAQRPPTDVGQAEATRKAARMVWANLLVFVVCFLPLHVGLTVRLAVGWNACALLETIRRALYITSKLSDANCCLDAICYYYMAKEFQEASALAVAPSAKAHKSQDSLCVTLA
T3 sequence (P34972 whole entry): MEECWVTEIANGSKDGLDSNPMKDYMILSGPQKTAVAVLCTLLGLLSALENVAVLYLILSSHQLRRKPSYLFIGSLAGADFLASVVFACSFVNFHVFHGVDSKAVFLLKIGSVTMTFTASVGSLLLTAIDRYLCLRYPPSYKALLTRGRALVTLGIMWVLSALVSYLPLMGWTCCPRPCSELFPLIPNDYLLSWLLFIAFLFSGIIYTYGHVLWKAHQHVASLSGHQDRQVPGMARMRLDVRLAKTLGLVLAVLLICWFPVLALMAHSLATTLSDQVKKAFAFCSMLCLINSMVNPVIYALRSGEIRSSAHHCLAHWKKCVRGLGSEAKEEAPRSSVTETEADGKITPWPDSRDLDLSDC
Paired box protein Pax-8, sequence (Q06710 whole entry): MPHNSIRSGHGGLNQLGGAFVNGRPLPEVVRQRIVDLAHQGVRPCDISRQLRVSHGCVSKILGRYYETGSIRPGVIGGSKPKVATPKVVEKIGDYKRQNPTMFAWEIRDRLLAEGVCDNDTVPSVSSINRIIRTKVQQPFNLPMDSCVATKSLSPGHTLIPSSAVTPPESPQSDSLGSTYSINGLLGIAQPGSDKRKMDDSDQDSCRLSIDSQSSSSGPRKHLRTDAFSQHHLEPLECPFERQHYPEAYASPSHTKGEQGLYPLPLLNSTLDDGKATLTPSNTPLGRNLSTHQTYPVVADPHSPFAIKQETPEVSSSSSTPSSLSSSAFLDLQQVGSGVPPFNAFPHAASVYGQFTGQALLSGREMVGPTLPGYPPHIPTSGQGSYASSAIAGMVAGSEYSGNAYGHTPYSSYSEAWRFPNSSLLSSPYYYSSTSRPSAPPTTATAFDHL
Nonstructural protein 1, sequence (Q194T2 whole entry): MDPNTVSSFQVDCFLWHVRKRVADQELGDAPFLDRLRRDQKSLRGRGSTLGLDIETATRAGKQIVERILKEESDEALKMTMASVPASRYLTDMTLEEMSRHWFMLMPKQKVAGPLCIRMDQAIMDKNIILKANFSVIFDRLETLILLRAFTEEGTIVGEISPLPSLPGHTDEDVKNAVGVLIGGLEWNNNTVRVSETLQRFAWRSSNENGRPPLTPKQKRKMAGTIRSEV
Intestinal-type alkaline phosphatase (Mus musculus, UniProt P24822), sequence (P24822 whole entry): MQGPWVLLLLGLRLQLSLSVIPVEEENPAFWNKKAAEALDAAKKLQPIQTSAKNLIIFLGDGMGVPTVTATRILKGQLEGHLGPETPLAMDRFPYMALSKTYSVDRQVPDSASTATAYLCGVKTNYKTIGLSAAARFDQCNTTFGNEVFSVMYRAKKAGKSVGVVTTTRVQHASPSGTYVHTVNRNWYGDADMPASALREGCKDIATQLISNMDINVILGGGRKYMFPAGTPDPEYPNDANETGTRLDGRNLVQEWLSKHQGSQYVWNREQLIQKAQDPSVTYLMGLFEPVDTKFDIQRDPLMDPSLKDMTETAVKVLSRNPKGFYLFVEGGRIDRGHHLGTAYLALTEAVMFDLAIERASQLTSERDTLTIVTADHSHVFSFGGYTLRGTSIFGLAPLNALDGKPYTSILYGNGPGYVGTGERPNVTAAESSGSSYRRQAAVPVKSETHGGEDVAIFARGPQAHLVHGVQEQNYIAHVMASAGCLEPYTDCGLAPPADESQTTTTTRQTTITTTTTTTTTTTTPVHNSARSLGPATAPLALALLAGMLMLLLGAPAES
Protein S100-A4, sequence (P26447 whole entry): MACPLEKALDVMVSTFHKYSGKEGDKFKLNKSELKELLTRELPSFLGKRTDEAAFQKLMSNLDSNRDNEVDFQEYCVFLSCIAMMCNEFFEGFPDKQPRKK
Photoreceptor-specific nuclear receptor, sequence (Q9Y5X4 whole entry, the tested form may be a part): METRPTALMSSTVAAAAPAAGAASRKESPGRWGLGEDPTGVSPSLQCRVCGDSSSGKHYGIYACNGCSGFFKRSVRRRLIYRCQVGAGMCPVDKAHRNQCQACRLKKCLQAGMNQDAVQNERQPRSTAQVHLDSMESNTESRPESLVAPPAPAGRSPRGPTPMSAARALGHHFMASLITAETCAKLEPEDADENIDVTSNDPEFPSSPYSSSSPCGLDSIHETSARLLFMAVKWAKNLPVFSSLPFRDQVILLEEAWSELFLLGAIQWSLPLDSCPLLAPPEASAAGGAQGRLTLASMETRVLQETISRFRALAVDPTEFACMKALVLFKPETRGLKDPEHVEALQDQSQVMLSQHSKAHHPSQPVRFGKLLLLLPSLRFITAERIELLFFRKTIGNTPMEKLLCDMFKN

SMILES: c1ccc(-c2cccc(-c3ccccn3)n2)nc1 [TERPYRIDINE]
- EC50 [1]: 2.54 µM (active)
- IC50 [2]: 0.504 µM (active)
- IC50 [3]: 1.84 µM (active)
- IC50 [4]: 44.9 µM (active)
- CC50 [5]: > 20 µM (active)
- AC50 [6]: 1.35 µM (active)
- EC50 [7]: < 0.1 µM (active)
- EC50 [8]: 4.14 µM (active)
- EC50 [9]: 27.5 µM (active)
- EC50 [10]: 17.1 µM (inconclusive)
- CC50 [11]: 1.02 µM (active)
- IC50 [12]: 0.483 µM (active)
- AC50 [13]: < 0.195 µM (active)
- EC50 [14]: 25.3 µM (active)
- IC50 [15]: > 80 µM (inactive)
- AC50 [16]: 2.11 µM (active)
- EC50 [17]: 0.349 µM (active)
- EC50 [18]: 4.87 µM (active)
- EC50 [19]: < 0.1 µM (active)
- EC50 [20]: 16.8 µM (active)
- IC50 [21]: 0.716 µM (active)
- EC50 [22]: 1.32 µM (active)
- EC50 [23]: < 0.1 µM (active)
- EC50 [24]: 11.2 µM (active)
- IC50 [25]: > 100 µM (inactive)
- CC50 [26]: 0.21 µM (active)
- EC50 [27]: 4.32 µM (inconclusive)

SMILES: COc1ccc(CNCCC(c2ccccc2)c2ccc3c(c2)OCO3)cc1 (centres undefined)
- EC50 [28]: > 32 µM (inactive)
- EC50 [29]: > 32 µM (inactive)
- IC50 [30]: 5.82 µM (active)
- IC50 [31]: > 32 µM (inactive)
- EC50 [32]: > 32 µM (inactive)
- IC50 [33]: 0.917 µM (active)
- IC50 [34]: > 32 µM (inactive)

SMILES: COc1cccc2c1C(=O)c1c(O)c3c(c(O)c1C2=O)CC(O)(C(C)=O)CC3OC1CC(N(C)C)C(O)C(C)O1 (centres undefined)
- IC50 [35]: 3.82 µM (active)
- AC50 [6]: 0.807 µM (active)
- AC50 [36]: 1.52 µM (active)
- AC50 [37]: 0.304 µM (active)
- AC50 [38]: > 52 µM (inactive)
